Experimental data reported in US6995272B2, “Crystal form of N-(4-trifluoromethylphenyl)-5-methylisoxazole-4-carboxamide” (Sanofi-Aventis Deutschland GmbH, priority 1997, dated 2006).
In brackets after ≈: the same amount, converted by molar mass.

Columns and labels:
[1] = Stability of the first crystal modification on storage (X-ray diffraction pattern); assay type: physicochemical
Experimental: Stability of the First Crystal Modification Samples of The first crystal modification were prepared as in Example 1 and were stored at various temperatures at atmospheric humidity. After the stated times, samples were taken and an X-ray diffraction pattern was prepared as in Example 1. […] For preparing the calibration curve for the quantitative determination, the reflection at 2θ=8.35° was used for phase 1 and the reflection at 2θ=16.1° was used for phase 2. The ratios of the corresponding peak heights were calculated and were correlated with the contents of phase 2. The limit of the method is 0.3%. The sample after storage for 1 month at 60° C. contains about 76% of the second crystal modification according to this method.

[2] = as above; assay type: physicochemical; conditions: +40° C./75% relative humidity
[3] = Solubility in water; assay type: physicochemical; conditions: for Solubility in water, result: water at 37° C., sampling 5 hours, UV detection
From the text: Solubility in Water [table]

[4] = tested on: humans who suffer from rheumatic arthritis; assay: Efficacy in humans who suffer from rheumatic arthritis; assay type: in vivo; conditions: drug comprising an effective content

SMILES | Crystal modification ([1]; 1 month, +25° C.) | Crystal modification ([1]; 1 month, +40° C.) | Crystal modification ([1]; 1 month, −15° C.) | Crystal modification ([1]; 3 months, +25° C.) | Crystal modification ([1]; 3 months, +40° C.) | Crystal modification ([1]; 3 months, +60° C.) | Crystal modification ([1]; 3 months, −15° C.) | Crystal modification ([1]; 6 months, +25° C.) | Crystal modification ([1]; 6 months, +40° C.) | Crystal modification ([1]; 6 months, −15° C.) | stability (not converted into the second crystal modification) ([1]; temperature range from −15° C. to +40° C.) | Crystal modification ([2]; 1 month) | Crystal modification ([2]; 3 months) | Crystal modification ([2]; 6 months) | Solubility in water, result [3] | solubility ([3]; water, 37 °C, water, thermodynamic from solid, water, 37° C., read-out: water solubility (amount that can be dissolved)) [µg/mL] | efficacy in comparison with a drug comprising the second crystal modification [4] | water solubility (amount that can be dissolved) ([3]; water, 37° C.) [µg/mL]
Cc1oncc1C(=O)Nc1ccc(C(F)(F)F)cc1 [first crystal modification, N-(4-trifluoromethylphenyl)-5-methylisoxazole-4-carboxamide] | First | First | First | First | First | Second | First | First | First | First | stable | First | First | First | 38 mg dissolved in 1 liter of water at 37 °C | 38 (≈ 141 µM) | same efficacy | –
Cc1oncc1C(=O)Nc1ccc(C(F)(F)F)cc1 [second crystal modification, N-(4-trifluoromethylphenyl)-5-methylisoxazole-4-carboxamide] | – | – | – | – | – | – | – | – | – | – | – | – | – | – | 25 mg dissolved in 1 liter of water at 37 °C | – | – | 25 (≈ 92.5 µM)
